Measured values reported in patent US20250011726A1, “METHODS AND COMPOSITIONS FOR MAINTAINING AGGREGATE STABILITY AND PLURIPOTENCY OF STEM CELLS” (Trailhead Biosystems Inc., priority 2023, published 2025).

Columns and labels:
hiPSCs = assay: Pluripotency marker expression by flow cytometry and qPCR; assay type: cell-based, human; conditions: for factor contribution (FC), NANOG optimization: MODDE optimizer for NANOG
Protocol: 3 ml sample was taken from each bioreactor on day 4 of the culture for qPCR testing. RNA samples were dissolved in Trizol and extracted. Quantification of RNA was performed on epoch reader. A high-Capacity cDNA RT Kit was used for reverse transcription of RNA samples of each bioreactor. 3 replicate samples of cDNA were obtained from 3 replicate samples of each bioreactor. Data collection was performed using QuantStudio for qPCR testing. The runs were performed per the manufacturer's protocol and recommendations. The primers used were NANOG, SOX2, POU5F1 and GAPDH. The data set obtained was then exported to Excel and normalized against corresponding housekeeping gene GAPDH. Final expression levels were expressed as 1/(2^Crt)×1000 and inputted into the MODDE software. A 3 ml sample was taken from each bioreactor on day 4 of the culture for flow testing. The aggregates were dissociated with Accutase for 10 minutes into single cells. Cells were resuspended in PBS and divided into samples for intracellular staining and cells for extracellular staining. Sample for intracellular staining were fixed with a live/dead stain FVS 780, then permeabilized and stained for OCT4 and SOX2.
Pluripotency data was assessed at the end of the experiment through Immunohistochemistry (IHC), flow cytometry and qPCR testing. The experiment was divided into two batches of experiments to be run at different times. Three replicated center point experiments with all five additives at mid-concentrations were used and split between the batches for normalization and model evaluation purposes. The optimization criteria were based on multiple attributes related to aggregate stability, cell growth and pluripotency. Mathematical models were generated and tuned for maximal predictive power and fit. The model responses for each parameter were statistically evaluated for model reproducibility, model validity, fit (R2) and prediction precision (Q2). […] The model had model validity above 0.25 indicating the absence of problems related to outliers and transformation issues.
Attaining maximal growth conditions of iPSC is not meaningful unless the iPSC state characteristics is also maintained. […] At the end of the experiment, using flow cytometry we tested for SSEA4, OCT4, SOX2 and TRA-1-60 while a complimentary q-PCR assessment was conducted for NANOG, OCT4 and SOX2. The results of these experiments were used to model the effect of the additives on pluripotency. […] This is because that until proven that individual factors are not in regulatory conflict (i.e., SOX2, NANOG, or OCT4 being subject to differential control), single-response factor optimization is prudent. As we found, these factors are indeed subject to differential control.

hiPSC aggregates = assay: Aggregate size, deviation and Aggregate % Error in bioreactor; assay type: cell-based, human; conditions: DS and pluronic F68 at low concentrations; heparin sodium salt and PEG present; FIG. 4B
Protocol: Samples from the bioreactor were taken after slightly mixing using a pipette to avoid sampling bias and gradient formation after settling. 3 ml total was sampled daily for 3 samples of 1 ml for cell count. The cells were first dissociated using Accutase and incubated for 10minutes. Cells were then quenched with E8 then centrifuged at 400×g for 6 minutes. The pellet was resuspended in the same volume of PBS. Samples were then analyzed for total cell count using Attune flow. 3 replicate counts were collected for each bioreactor for each day of culture. 2 samples were collected for aggregate imaging of 500 ul and put on a 24 well plate. EVOS 7000 was used for bright field images of the aggregates. […] A minimum of 30 aggregates were measured for each bioreactor every day of the culture. […] The cell counts were also analyzed for doubling time using GraphPad Prism. […] Using the aggregate size generated from day 1 from all bioreactors and their corresponding cell growth rate, a predicted aggregate size was calculated for day 3 and compared to the actual size measured. The predicted aggregate size was calculated from theoretical aggregate volume. […]
From the cell number, the predicted aggregate volume (V3P) was calculated again from the first equation. […] This is calculated by subtracting the predicted from the actual average size measured and divided by the actual value: […]

[1] = coefficients of flow and qPCR markers, FIG. 3B

Row | Substance | factor contribution (FC), NANOG optimization (hiPSCs) | impact on NANOG (coefficient) (hiPSCs; [1]) | impact on OCT4 (coefficient) (hiPSCs; [1]) | contribution factor, optimizer for target aggregate % error of 0 (hiPSC aggregates)
1 | dextran sulfate [DS] | 48.04 | positive | negative | 28.05
2 | Heparin sodium salt [reference compound] | 21.12 | – | – | 21.71
